Common to all, as to experiment: NCI-60 cell line screen, 48 h
Assay [1] concerns DLD-1 colon.
For assay [2], the system named is DMS 114 small cell lung.
Assay [3] has as its system HOP-18 NSCLC.
The test system of assay [4] is KM20L2 colon.
In assay [5] the test system is SNB-78 CNS.
Assay [6] concerns XF 498 CNS.
Assay [7] concerns BT-549 breast.
Assay [8] concerns DU-145 prostate.
In assay [9] the test system is HS 578T breast.
In assay [10] the test system is MCF7 breast.
The test system of assay [11] is T-47D breast.

Drawing on PubChem BioAssay (NCI), this text covers TGI and GI50 for 21 compounds.

Where “and” joins values, the source holds several entries; their conditions need not be identical. Equal entries are not always repeated.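 96-well plates; 48 h exposure; 5 concentrations. Endpoints by linear interpolation between flanking doses. Not reached: highest tested concentration assigned. GI50: concentration for 50% inhibition of growth. TGI: total growth inhibition.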

`N[C@H](C(=O)O)[C@H](Cl)CC(=O)O`: the TGI in assay [1], in assay [2], in assay [3], in assay [4], in [5] and in assay [6] was greater than 100 µM throughout.

`O=C(O)c1cc(=O)c2[nH]c3ccccc3c2s1`: the TGI in assay [1], in assay [2], in [4], in [5] and in assay [6] was greater than 100 µM throughout.

`O=c1cc(-c2ccccc2)c2cc3c(=O)ccoc3cc2o1`: the TGI in assay [1], in [2], in assay [4] and in assay [6] was greater than 100 µM each time.

In the case of `NNC(=O)CCC(=O)NC1C2CC3CC(C2)CC1C3` (centres undefined), the TGI in assay [1], in [2], in assay [4] and in assay [5] was greater than 100 µM in each case.

As for `COc1cccc(C2c3cc4c(cc3OC(O)(CO)C2C(=O)O)OCO4)c1` (centres undefined) (tested in a mixture with another compound), the TGI in [1], in [2], in assay [3] and in assay [4] was greater than 100 µM each time.

Turning to `Cc1ccc(NC(=O)/C(=N\Nc2ccc([N+](=O)[O-])cc2[N+](=O)[O-])C2C(=O)NC(=O)NC2=O)cc1`, the TGI in assay [1], in assay [2], in assay [3], in assay [4] and in assay [5] was greater than 100 µM each time.

Turning to `N#CC(C(=O)C(=O)NCCCNC(=O)C(=O)C(C#N)c1ccccc1)c1ccccc1` (centres undefined), the TGI in [1], in [2], in assay [3], in [4] and in [5] was greater than 100 µM in each case.

Take `CC1S(=O)(=O)OCCOS1(=O)=O`: the TGI in assay [1], in [2], in [3], in assay [4] and in assay [5] was greater than 100 µM each time.

As for `CCOC(=O)NN1C(=O)C(=P(c2ccccc2)(c2ccccc2)c2ccccc2)C(C(=O)OCC)=C1C`, the TGI in assay [1], in assay [4], in [5] and in assay [6] was greater than 100 µM throughout.

`COc1cccc(C(=O)C2C(=O)N(C)CCc3ccccc32)c1OC` (centres undefined): the TGI in [1], in [2], in assay [3], in [4] and in assay [6] was greater than 100 µM each time.

Consider `COc1ccc(O)c(C#N)c1C#N`, for which the TGI in assay [4], in [5] and in assay [6] was greater than 100 µM in each case.

Consider `COc1cc(/C=C/C(=O)c2sc(Nc3ccccc3)nc2C)ccc1O`, for which the TGI in [1], in [2], in [3], in assay [4] and in [5] was greater than 100 µM in each case.

For the compound `Cc1cccc(C(C)C)c1NC(=O)C(=O)CC(=O)c1c(C)n([O-])c2ccccc2[n+]1=O`, the TGI in assay [2] is 52.1 µM; in assay [3], greater than 100 µM; in [4] it was greater than 100 µM; in assay [5], greater than 100 µM.

For the compound `CCCCCCCCCCCCCC(=O)CBr`, the TGI was 22.6 µM in assay [7]; 34.3 µM in [1]; 9.3 µM in [2]; 33.7 µM in [8]; 29.3 µM in assay [3]; 52.4 µM in [9]. Further, the TGI was 26 µM in assay [4], 30.2 µM in [10], 30.9 µM in assay [5] and 18.7 µM in assay [11].

In the case of `COc1cc([C@@H]2c3cc4c(cc3[C@@H](NC(=O)c3ccccc3)C3COC(=O)[C@@H]32)OCO4)cc(OC)c1O` (some centres undefined), the TGI in assay [1] was greater than 100 µM; in assay [2] it was 21.4 µM; in assay [3] it was greater than 100 µM; in [4] it was 12.8 µM; in assay [5] it was greater than 100 µM.

Consider `CC1=C(O)C(=O)C2C(=O)C1C(C)C2c1ccc(Cl)cc1` (centres undefined), for which the TGI in [1], in assay [5] and in assay [6] was greater than 100 µM throughout.

`CC(=O)n1c2ccccc2c2nc3nc(Oc4ccc(C)cc4)c4ccccc4c3cc21`: the TGI in [1], in [2], in assay [4] and in assay [5] was greater than 100 µM in each case.

As for `CC(=O)O[C@@H]1CC2C(C)(C)CCCC2(C)C2=C1C(=O)C(C(C)C)=CC2=O` (some centres undefined), the GI50 is 0.621 µM in [7]; 1.09 µM in [8]; 1.79 µM in assay [9]; 1.05 µM in [10]; 1.49 µM in assay [11]. Besides, the TGI in assay [7] was 3.05 µM; in [8], 2.48 µM; in assay [9], greater than 100 µM; in assay [10] it was greater than 100 µM; in assay [11] it was 7.31 µM.

`CC1C(=O)C(C)C(c2ccccc2)N(N=O)C1c1ccccc1` (centres undefined): the GI50 is greater than 1000 µM in assay [1]; greater than 1000 µM in assay [3]; 28.6 µM in assay [9]; 220 µM in [5]; 53.2 µM in assay [6]. Also, the TGI in assay [1] is greater than 1000 µM; in [8], 567 µM; in assay [3] it was greater than 1000 µM; in assay [9], 186 µM; in assay [4], greater than 1000 µM; in [5] it was greater than 766 µM. Moreover, the TGI in assay [11] is 311 µM; in assay [6], 73.8 µM and 214 µM.

For the compound `COC(=O)CNC(=O)[C@@H](OC)[C@@H]1Cc2cc3cc(OC4CC(OC5CC(O)C(O)C(C)O5)C(O)C(C)O4)c(C)c(O)c3c(O)c2C(=O)[C@H]1OC1CC(OC2CC(OC3CC(C)(O)C(O)C(C)O3)C(O)C(C)O2)C(O)C(C)O1` (some centres undefined), the GI50 in [7] is 0.114 µM; in assay [8], 0.208 µM; in assay [9], 0.123 µM; in assay [10], 0.0546 µM; in assay [11] it was 0.256 µM. Moreover, the TGI is 1.1 µM in assay [7]; greater than 50 µM in assay [8]; 2.64 µM in [9]; greater than 50 µM in assay [10]; greater than 50 µM in assay [11].

For the compound `Fc1ccc2[nH]c3c(NCCCN4CCOCC4)ncnc3c2c1`, the GI50 in [7] is 22.5 µM; in assay [8], 88 µM; in [9], 41.9 µM; in [10], 41.5 µM; in [11], 35.7 µM. In addition, the TGI in assay [7] is 99.4 µM; in [8], greater than 100 µM; in assay [9], greater than 100 µM; in assay [10], greater than 100 µM; in assay [11], greater than 100 µM.
